What was measured:
Type in all cases: in vivo, mouse
[1] = tested on: FKRP and LARGE transcripts; experiment: Quantitative real-time PCR of FKRP and LARGE transcripts in muscles of P448L mice; settings: 5% ribitol, 3 months (FIG. 11b); cardiac muscle, limb muscle, diaphragm
Procedure: Tissues were collected from heart, diaphragm and tibialis anterior. RNA was extracted using TRIzol (Invitrogen) following the supplied protocol. Final RNA pellet was re-suspended in 20 μl RNAse-nuclease free water. Final RNA concentration was determined using Nanodrop 2000c. One μg of RNA was subsequently converted to cDNA using the High-Capacity RNA-to-cDNA™ Kit (Applied Biosystems) following the supplied protocol. cDNA was then used for quantitative real-time PCR using the mouse FKRP-FAM (Mm00557870_m1) and LARGE-FAM (Mm00521885 ml) taqman assay with primer limited GAPDH-VIC (Mm99999915_g1) as the internal control and TaqMan® Universal Master Mix II, with UNG (Life Technologies). […] Results of FKRP and LARGE transcript were calculated and expressed as 2^-ΔΔCt and compared across tissues and animals.

[2] = tested on: F-α-DG (functionally glycosylated α-DG); experiment: Immunohistochemical staining of F-α-DG with IIH6C4 antibody in muscles of ribitol-treated P448L mice
Procedure: Ribitol was purchased from Sigma (A5502 Adonitol, ≥98%, Sigma, St. Louis) and dissolved in drinking water to the final concentration of 5% or 10%. […] mice aged at 4 weeks were treated with 5% ribitol drinking water for 1 month and […] mice aged at 7 weeks were treated with 5% ribitol drinking water for 3 months and 6 months. All the mice were randomly assigned to either treatment or control groups. And a minimum number of 4 mice were used for each group. No animal was excluded. […] female breeders were given 10% ribitol in drinking water during pregnancy, and pups continued to be treated with 10% ribitol in drinking water until they were euthanized at 19 weeks of age. Untreated age-matched […] and wild-type C57BL/6 mice were used as controls. The animals were terminated at the end of each treatment time point and tissues including heart, diaphragm, TA, quadriceps, liver, spleen and kidney were collected for analyses. […] For immunohistochemical detection of functionally glycosylated α-DG, […] of thickness cross sections of untreated and C57 control, as well as tissues from treated cohorts were included in each slide. Slides were first fixed in ice cold Ethanol:Acetic acid (1:1) for 1 min, blocked with 10% normal goat serum (NGS) in […]-buffer saline (TBS) for 30 min at room temperature, and incubated overnight at 4° C. with primary mouse monoclonal antibody IIH6C4 (EMD Millipore) (1:500) against α-DG. Negative controls received 10% normal goat serum in 1×TBS only. Sections were washed and incubated with secondary AlexaFLuor 488 goat anti-mouse IgM (Invitrogen) (1:500) at room temperature for 2 hr. […] Immunofluorescence was visualized using an Olympus BX51/BX52 fluorescence microscope (Opelco) and images were captured using the Olympus DP70 digital camera system (Opelco). Slides were examined in a blinded manner by the investigator.

FKRP P448L mutant mice = experiment: Muscle function tests (treadmill exhaustion, grip strength) in P448L mice
Procedure: For treadmill exhaustion test, 17 and 30 weeks old mice were placed on the belt of a five-lane-motorized treadmill (LE8700 treadmill, Panlab/Harvard Apparatus, Barcelona, Spain) supplied with shock grids mounted at the back of the treadmill, which delivered a 0.2 mA current to provide motivation for exercise. Initially, the mice were subjected to an acclimation period (time, 5 min; speed, 8 cm/s, and 0° incline). Immediately after acclimation period, the test commenced with speed increases of 2 cm/s every minute until exhaustion. The test was stopped and the time to exhaustion was determined when the mouse remained on the shock grid for 5 s without attempting to re-engage the treadmill. For grip force test, forelimb and hindlimb in peak torque was measured by a grip strength meter (Columbus Instruments). For forelimb force, the animal was held so that only the forelimb paws grasp the specially designed mouse flat mesh assembly, and was pulled back from the tail until the grip was broken. The force transducer recorded the peak force reached when the animal's grip is broken. For hindlimb force, an angled mesh assembly was used. Mice were allowed to rest on the angled mesh assembly, facing away from the meter with its hindlimbs at least one-half of the way down the length of the mesh. The mouse tail was pulled directly toward the meter and parallel to the mesh assembly. During this procedure, the mice resist by grasping the mesh with all four limbs. Pulling toward the meter was continued until the hindlimbs released from the mesh assembly. Five successful hindlimb and forelimb force measurements within 2 minutes were recorded. The average value was used for analysis. Force was presented as values of KGF (kilogram-force) units normalized to bodyweights (gr) as “Units/gr”. The tests were performed 1 week before euthanasia.

OC[C@@H](O)[C@@H](O)[C@@H](O)CO [ribitol]
FKRP and LARGE transcript levels, treated vs untreated [1]: No statistically significant difference | F-α-DG signal by IIH6C4 immunohistochemistry ([2]; 5% ribitol in drinking water, 1 month, 4-week-old P448L mice, heart, diaphragm, limb muscles): visibly increased F-α-DG | F-α-DG levels by IIH6C4 immunofluorescence ([2]; 5% ribitol in drinking water, 3 and 6 months, from 7 weeks of age, all muscles): clear increase in the levels of F-α-DG | Expression of F-α-DG by immunohistochemistry ([2]; 10% ribitol in drinking water from pregnancy to 19 weeks of age): detected in all skeletal muscles and in the cardiac muscle | Limb muscle function (treadmill exhaustion test) (FKRP P448L mutant mice; 5% ribitol, 3 and 6 months): significant improvement in limb muscle function was not demonstrated | Treadmill running distance and time vs untreated (FKRP P448L mutant mice; 10% ribitol from pregnancy, 17 weeks of age): significantly longer | Grip strength, forelimb force vs untreated (FKRP P448L mutant mice; 10% ribitol from pregnancy, 18 weeks of age): significant improvement

— patent US20200061092A1, “METHODS AND COMPOSITIONS FOR TREATING DISORDERS ASSOCIATED WITH MUSCLE WEAKNESS” (priority 2018, published 2020)
